One assay has as its target T1, GSNOR (Homo sapiens, UniProt P11766).
T1 construct: made in house; host or cells: E. coli
As to the kind of experiment: GSNOR assay (inhibition of GSNOR activity in vitro). Type of assay: biochemical. Conditions: 0.240 mM GSNO, 0.300 mM NADH, pH 7.4, 25° C.; read-out: GSNOR inhibitor IC50. As to the method: Various compounds were tested in vitro for their ability to inhibit GSNOR activity.
Pre-cultures were grown from stabs of a GSNOR glycerol stock in 2XYT media containing 100 ug/ml ampicillin after an overnight incubation at 37° C. Cells were then added to fresh 2XYT (4 L) containing ampicillin and grown to an OD (A600) of 0.6-0.9 at 37° C. before induction. GSNOR expression was induced with 0.1% arabinose in an overnight incubation at 20° C.
E. coli cell paste was lysed by nitrogen cavitation and the clarified lysate purified by Ni affinity chromatography on an AKTA FPLC (Amersham Pharmacia). The column was eluted in 20 mM Tris pH 8.0/250 mM NaCl with a 0-500 mM imidazole gradient. […] GSNOR was recovered in the flowthrough fraction and for crystallography is further purified by Q-Sepharose and Heparin flowthrough chromatography in 20 mM Tris pH 8.0, 1 mM DTT, 10 uM ZnSO4.
GSNO and Enzyme/NADH Solutions are made up fresh each day. The Solutions are filtered and allowed to warm to room temperature. GSNO Solution: 100 mM NaPO4 (pH 7.4), 0.480 mM GSNO. 396 μL of GSNO Solution is added to a cuvette followed by 8 μL of test compound in DMSO (or DMSO only for full reaction control) and mixed with the pipette tip. Compounds to be tested are made up at a stock concentration of 10 mM in 100% DMSO. 2 fold serial dilutions are done in 100% DMSO. 8 μL of each dilution are added to an assay so that the final concentration of DMSO in the assay is 1%. The concentrations of compounds tested range from 100 to 0.003 μM. Enzyme/NADH Solution: 100 mM NaPO4 (pH 7.4), 0.600 mM NADH, 1.0 μg/mL GSNO Reductase. 396 μL of the Enzyme/NADH Solution is added to the cuvette to start the reaction. The cuvette is placed in the Cary 3E UV/Visible Spectrophotometer and the change in 340 nm absorbance/min at 25° C. is recorded for 3 minutes. The assays are done in triplicate for each compound concentration. IC50's for each compound are calculated using the standard curve analysis in the Enzyme Kinetics Module of SigmaPlot.
Final assay conditions: 100 mM NaPO4, pH 7.4, 0.240 mM GSNO, 0.300 mM NADH, 0.5 μg/mL GSNO Reductase and 1% DMSO. Final volume: 800 μL/cuvette.

For assay [1], the target named is T2, human NK3 receptor (Homo sapiens, UniProt P29371).
T2 construct: expressed in transfected cells; host or cells: CHO cells
T2 sequence (P29371 1-465): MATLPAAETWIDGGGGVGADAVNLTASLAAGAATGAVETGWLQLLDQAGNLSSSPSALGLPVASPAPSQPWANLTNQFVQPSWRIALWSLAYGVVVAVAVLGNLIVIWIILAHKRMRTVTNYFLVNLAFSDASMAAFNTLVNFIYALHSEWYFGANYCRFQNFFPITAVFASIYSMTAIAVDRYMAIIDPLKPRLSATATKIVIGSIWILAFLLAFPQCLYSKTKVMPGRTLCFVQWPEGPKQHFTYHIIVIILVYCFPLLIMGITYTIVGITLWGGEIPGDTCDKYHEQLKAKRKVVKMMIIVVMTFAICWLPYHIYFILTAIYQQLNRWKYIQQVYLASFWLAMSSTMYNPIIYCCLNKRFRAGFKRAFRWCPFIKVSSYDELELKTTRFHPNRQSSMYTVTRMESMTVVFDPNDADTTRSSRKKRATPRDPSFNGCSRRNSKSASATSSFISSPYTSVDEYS
As to the kind of experiment: Human NK3 receptor binding assay at 10 μM. Conditions: 10 μM test compound; 0.4 nM [3H]SR142801; CHO cell membranes; read-out: percent inhibition at 10 μM, human NK3 receptor binding. As to the method:
Evaluation of the affinity of test compounds for the human neurokinin NK3 receptor from transfected CHO cells was performed using an antagonist radioligand binding assay. Antagonist activity was evaluated at a concentration of 10 μM for a representative subset of test compounds, and the results were expressed as the percent inhibition at that concentration.
Receptor binding assays were performed using crude membranes prepared from CHO cells expressing human NK3 receptor. Osanetant (SR142801), a non-peptide NK3 antagonist, was used as a ligand, and SB222200 was used as a positive control reference compound. The assay was performed with cell membrane homogenates (24 μg protein) incubated for 120 min at 22° C. with 0.4 nM [^3H]SR142801 in the absence or presence of the test compound in a buffer containing 20 mM Hepes/NaOH (pH 7.4), 120 mM NaCl, 1 mM MnCl2, 0.01% bacitracin, 0.002% aprotinin and 0.1% BSA. Following incubation, the samples were filtered rapidly under vacuum through glass fiber filters (GF/B, Packard) that had been presoaked with 0.3% PEI. The filters were rinsed several times with ice-cold 50 mM Tris/HCl using a 96-sample cell harvester (Unifilter, Packard), dried, and counted for radioactivity in a scintillation counter (Topcount, Packard) using a scintillation cocktail (Microscint 0, Packard). Each test compound was evaluated at a single concentration of 10 μM. The standard reference compound, SB222200, was tested in each experiment. Nonspecific binding was determined in the presence of 10 μM SB222200. The specific ligand binding to the receptor is defined as the difference between the total binding and the nonspecific binding. The results are expressed as a percent of control specific binding ((measured specific binding/control specific binding)×100) obtained in the presence of the test compounds.

Assay [2] has as its target T2, human NK3 receptor. The experiment in a line: Human NK3 receptor binding assay at 1 uM. Conditions: 1 μM test compound; 0.4 nM [3H]SR142801; CHO cell membranes; read-out: percent inhibition at 1 μM, human NK3 receptor binding. As to the method: Evaluation of the affinity of compounds for the human NK3 receptor from transfected CHO cells was performed using an antagonist radioligand binding assay. Antagonist activity was evaluated at a concentration of 1 μM for a representative subset of test compounds, and the results were expressed as the percent inhibition at that concentration.
Receptor binding assays were performed using crude membranes prepared from CHO cells expressing human NK3 receptor. Osanetant (SR142801), a non-peptide NK3 antagonist, was used as a ligand, and SB222200 was used as a positive control reference compound. […] The filters were rinsed several times with ice-cold 50 mM Tris/HCl using a 96-sample cell harvester (Unifilter, Packard), dried, and counted for radioactivity in a scintillation counter (Topcount, Packard) using a scintillation cocktail (Microscint 0, Packard). Each test compound was evaluated at a single concentration of 1 μM. […] Nonspecific binding was determined in the presence of 10 μM SB222200. […] The results are expressed as a percent of control specific binding ((measured specific binding/control specific binding)×100) obtained in the presence of the test compounds.

The target of assay [3] is T2, human NK3 receptor. The experiment in a line: Human NK3 receptor binding assay determined by IC50. Conditions: 0.4 nM [3H]SR142801; CHO cell membranes. As for the experimental part: Evaluation of the affinity of compounds for the human NK3 receptor from transfected CHO cells was performed using an antagonist radioligand binding assay. The antagonist activity of a representative subset of test compounds was evaluated over a range of concentrations, and the results were expressed as IC50 values.
Receptor binding assays were performed using crude membranes prepared from CHO cells expressing human NK3 receptor. Osanetant (SR142801), a non-peptide NK3 antagonist, was used as a ligand, and SB222200 was used as a positive control reference compound. […] The filters were rinsed several times with ice-cold 50 mM Tris/HCl using a 96-sample cell harvester (Unifilter, Packard), dried, and counted for radioactivity in a scintillation counter (Topcount, Packard) using a scintillation cocktail (Microscint 0, Packard). […] Nonspecific binding was determined in the presence of 10 μM SB222200. […] The IC50 values (concentration causing a half-maximal inhibition of control specific binding) and Hill coefficients (nH) were determined by non-linear regression analysis of the competition curves generated with mean replicate values using Hill equation curve fitting (Y=D+[(A−D)/(1+(C/C50)^nH)], where Y=specific binding, D=minimum specific binding, A=maximum specific binding, C=compound concentration, C50=IC50, and nH=slope factor). […]

For orientation: IC50 means the point on the concentration scale where inhibition reaches its midpoint. As a reminder, the inhibition is the change of the read-out against control, counted positive when it falls.

T1 sequence (P11766 whole entry): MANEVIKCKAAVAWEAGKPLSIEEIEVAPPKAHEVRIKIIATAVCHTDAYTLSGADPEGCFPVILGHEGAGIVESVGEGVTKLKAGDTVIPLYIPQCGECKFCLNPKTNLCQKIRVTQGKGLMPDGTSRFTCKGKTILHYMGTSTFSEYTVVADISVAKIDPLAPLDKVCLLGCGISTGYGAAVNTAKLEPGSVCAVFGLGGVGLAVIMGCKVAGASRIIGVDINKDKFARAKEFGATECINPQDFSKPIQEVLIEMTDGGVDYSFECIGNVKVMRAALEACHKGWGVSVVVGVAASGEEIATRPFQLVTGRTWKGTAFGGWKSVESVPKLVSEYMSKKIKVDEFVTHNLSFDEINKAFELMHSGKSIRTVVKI

Take `Cn1cc(C2=C(c3cccs3)C(c3cc(O)c(C(=O)O)c(F)c3)CC(=O)N2)cn1` (stereo not shown) [Example 17, 2-fluoro-6-hydroxy-4-(6-(1-methyl-1H-pyrazol-4-yl)-2-oxo-5-(thiophen-2-yl)-1,2,3,4-tetrahydropyridin-4-yl)benzoic acid]: the IC50 on GSNOR is less than 100 nM.

`CCOc1cc(C2CC(=O)NC(c3cccnc3)=C2c2ccsc2)cc([N+](=O)[O-])c1O` (stereo not shown) [Example 2, 4-(3-ethoxy-4-hydroxy-5-nitrophenyl)-6-(pyridin-3-yl)-5-(thiophen-3-yl)-3,4-dihydropyridin-2(1H)-one]: the inhibition at 10 µM at human NK3 receptor [1] was greater than 50%. For the same molecule, at GSNOR, the IC50 is less than 100 nM.

As to `O=C1CC(c2ccc(C(=O)O)c(O)c2)C(c2ccsc2)=C(c2ccccc2)N1` (stereo not shown) [Example 7, 2-hydroxy-4-(2-oxo-6-phenyl-5-(thiophen-3-yl)-1,2,3,4-tetrahydropyridin-4-yl)benzoic acid], the IC50 at GSNOR was less than 100 nM.

As for `Cn1cc(C2=C(c3ccsc3)C(c3ccc(C(=O)O)c(O)c3)CC(=O)N2)cn1` (stereo not shown) [Example 9, 2-hydroxy-4-(6-(1-methyl-1H-pyrazol-4-yl)-2-oxo-5-(thiophen-3-yl)-1,2,3,4-tetrahydropyridin-4-yl)benzoic acid], the half-inhibitory concentration (IC50) at GSNOR was less than 100 nM.

With `CCOc1cc(C2CC(=O)N(C)C(c3ccccc3)=C2c2ccccc2)cc([N+](=O)[O-])c1O` (stereo not shown) [Example 16, 4-(3-ethoxy-4-hydroxy-5-nitrophenyl)-1-methyl-5,6-diphenyl-3,4-dihydropyridin-2(1H)-one], the inhibition at 1 µM on human NK3 receptor [2] is greater than 50%.

Regarding `O=C1CC(c2cc(OCCO)c(O)c([N+](=O)[O-])c2)C(c2ccccc2)=C(c2ccccc2)N1` (stereo not shown) [Example 14, 4-(4-hydroxy-3-(2-hydroxyethoxy)-5-nitrophenyl)-5,6-diphenyl-3,4-dihydropyridin-2(1H)-one], the IC50 on GSNOR is less than 100 nM. The inhibition at 1 µM at human NK3 receptor [2] is greater than 50%.

In the case of `CCOc1cc(C2CC(=O)NC(c3cnn(C)c3)=C2c2ccsc2)cc([N+](=O)[O-])c1O` (stereo not shown) [Example 4, 4-(3-ethoxy-4-hydroxy-5-nitrophenyl)-6-(1-methyl-1H-pyrazol-4-yl)-5-(thiophen-3-yl)-3,4-dihydropyridin-2(1H)-one], the inhibition at 10 µM on human NK3 receptor [1] was greater than 50%. At GSNOR, the IC50 is less than 100 nM.

Regarding `CCOc1cc(C2CC(=O)NC(c3ccccc3)=C2c2ccccc2)cc([N+](=O)[O-])c1O` (stereo not shown) [Example 1, 4-(3-ethoxy-4-hydroxy-5-nitrophenyl)-5,6-diphenyl-3,4-dihydropyridin-2(1H)-one], the inhibition at 10 µM at human NK3 receptor [1] was greater than 50%. Moreover, the IC50 is less than 100 nM on GSNOR and roughly 1100 nM at human NK3 receptor [3].

(Values after patent publication US9283213B2, “Dihydropyridin-2(1H)-one compounds as S-nitrosoglutathione reductase inhibitors and neurokinin-3 receptor antagonists” (N30 Pharmaceuticals, Inc., priority 2010, dated 2016).)
